Columns and labels:
[1] = system: Salmonella typhimurium wild type; format: cell-based
Protocol: Preliminary characterization of the utilization of large numbers of carbon sources can be carried out using manual or automated taxonomic screening devices, such as the Biolog MT, ES, GN or GP Microplate™. Alternatively, this can be performed using commercially available components. […] Briefly, strains were swabbed onto TSA plates and grown at a permissive temperature of 30° C. for 6 hours to provide an inoculum. The inoculum (MacFarland standard ˜1 in 0.89% sterile saline solution) was prepared as per Biolog “Instructions for Use” handbook, with the exception that leucine was added to correct for mutants housed in strains which were in a leucine-deficient background. Inoculum was added to Biolog GN or ES plates and incubated at the semipermissive temperature of 35° C. overnight (˜21 hr). Carbon source utilization is read colorimetrically in a microplate reader at 600 nm. Substrates that are not used similarly by wild-type and mutant are identified. […] Typically, these steps were performed using Biolog MT plates or by using a redox indicator (such as tetrazolium violet, 0.0001%) in a minimal medium with a sole carbon source (substrate being tested), supplemented with a small amount of tryptone (0.06%) or proteose peptone (0.2%). It was possible to do this in 96-well microtiter plate format, which will be adaptable to high throughput or multichannel screening.

[2] = system: Salmonella typhimurium temperature sensitive mutant gyrA212 (strain 7533); format: cell-based
Excerpt: A Salmonella typhimurium parent strain 7389 was used to form a collection of temperature sensitive mutants. […] Complementation of the mutant phenotype was done. In the case of the three mutants described in the data of this figure (gyrA202, gyrA208, gyrA212) the complemented mutants were identified to be in the A subunit of the bacterial DNA gyrase enzyme. Each mutant was altered in a different portion (see number of mutant) of the A subunit. […] The data are expressed as fold increases in susceptibility. A four-fold increase in susceptibility is the minimum change to be considered significant in this example.
Referring to FIG. 1, the experiments were essentially by the methods outlined by the National Committee for Clinical Laboratory Standards (NCCLS). Bacteria were grown in Mueller-Hinton (MH) broth with agitation at 30° C.
The antibiotic dilution ranges used were:
Novobiocin: Range 128-0 μg/ml. Coumermycin A1: Range 128-0 μg/ml. […] Norfloxacin: Range 8-0 μg/ml. Mitomycin C: Range 8-0 μg/ml Phenylmercuric acetate: Range 32-0 μg/ml. 4-Nitroquinoline Oxide: Range 32-0 μM Rifampicin: Range 128-0 μg/ml. Gentamicin: Range 32-0 μg/ml. Streptomycin: Range 128-0 μg/ml. Cefotaxime: Range 8-0 μg/ml. Ampicillin: Range 32-0 μg/ml. Phosphonomycin (or fosfomycin): Range 128-0 μg/ml. […]

[3] = wild type with sub-MIC levels of antibiotic
[4] = wild type with sub-MIC levels of antibiotic, Biolog GN plates, 35° C.

For `Cn1nnnc1SCC1=C(C(=O)O)N2C(=O)[C@@H](NC(=O)[C@H](O)c3ccccc3)[C@H]2SC1` [cefamandole], the “utilization of D-alanine or D-serine as carbon source markers” value ([1]; wild type strain, sub-MICs of cell wall synthesis inhibitor) was “affected” and the “overlap of carbon source utilization phenotype with the gyraseA/ciprofloxacin induced phenotype” value [1, 3] was 40%.
`CO[C@@H]1[C@@H](OC(N)=O)[C@@H](O)[C@H](Oc2ccc3c(O)c(NC(=O)c4ccc(O)c(CC=C(C)C)c4)c(=O)oc3c2C)OC1(C)C` [novobiocin] was tested, and the “carbon source utilization phenotype compared with gyraseA mutants and the ciprofloxacin induced phenotype” value [1, 3] was “very similar phenotype”.
For `CCn1cc(C(=O)O)c(=O)c2cc(F)c(N3CCNCC3)cc21` [norfloxacin], the “fold increase in susceptibility” value [2] was 8 fold.
`O=C(N[C@H](CO)[C@H](O)c1ccc([N+](=O)[O-])cc1)C(Cl)Cl` [chloramphenicol] was tested, and the “overlap of carbon source utilization phenotype with the gyraseA/ciprofloxacin induced phenotype” value [1, 3] was 40%.
For `O=C(O)c1cn(C2CC2)c2cc(N3CCNCC3)c(F)cc2c1=O` [ciprofloxacin], the “carbon source utilization phenotype compared with one of the gyraseA mutant alleles” value [1, 4] was “reproduces the phenotype of one of the mutant alleles perfectly” and the “overlap of carbon source utilization phenotype with the other two gyraseA mutant alleles” value [1, 4] was 46-71%.

Reference: patent publication US20010006794A1, “SCREENING FOR MODULATORS OF BIOMOLECULES” (priority 1995, published 2001)
